Our source for the IC50 values is patent US20140228286A1, “SPECIFIC PDE4B-INHIBITORS FOR THE TREATMENT OF DIABETES MELLITUS” (BOEHRINGER INGELHEIM INTERNATIONAL GMBH, priority 2013, published 2014).

As a reminder, the IC50 is the point on the concentration scale where inhibition reaches its midpoint.

The target of this test is T1, PDE4B (Homo sapiens, UniProt Q07343).
T1 construct: active site fragment comprising the amino acids 152-484
T1 sequence (Q07343 324-656): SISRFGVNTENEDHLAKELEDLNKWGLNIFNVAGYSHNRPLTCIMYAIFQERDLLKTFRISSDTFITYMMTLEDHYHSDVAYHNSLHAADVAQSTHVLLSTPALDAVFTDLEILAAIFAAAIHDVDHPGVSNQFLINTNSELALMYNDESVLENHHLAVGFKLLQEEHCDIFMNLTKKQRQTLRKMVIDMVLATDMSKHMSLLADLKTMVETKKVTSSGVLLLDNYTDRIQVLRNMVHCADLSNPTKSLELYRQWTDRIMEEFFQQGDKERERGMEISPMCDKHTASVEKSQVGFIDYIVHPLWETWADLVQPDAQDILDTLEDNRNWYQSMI
Put plainly: PDE4B Scintillation Proximity (SPA) Assay. Particulars: PDE4B active site fragment amino acids 152-484; [3H]cAMP; 30° C., one hour; read-out: Experimentally determined IC50-value for PDE4B inhibition. It counts as biochemical. An excerpt: The IC50-values of the compounds of the invention (Examples 1.1 to 1.47) with respect to their PDE4B-inhibiting ability have been determined with a Scintillation Proximity (SPA) Assay (GE Healthcare, No. TRKQ7090). The Scintillation Proximity (SPA) Assay is based on the detection of the different affinities of the cyclic 3′-5′adenosine monophosphate (cAMP, low affinity) and the linear 5′-adenosine monophosphate (AMP, high affinity) to yttrium-silicate-scintillator beads. The cAMP-specific phosphodiesterase (PDE) PDE4B cleaves the 3′-phosphodiester bond of the tritium-labelled-[^3H]cAMP to the [^3H]5′-AMP. This [^3H]5′-AMP associates with the scintillator beads because of their higher affinity and causes scintillations (light flashes) which can be measured in a Wallac Microbeta Scintillation Counter.
10 μl of a [^3H]cAMP-solution (0.05 μCi in H2O, 10-30 Ci/mmol) are added to 89 μl of a PDE4B-enzyme-solution (active site fragment comprising the amino acids 152-484; 0.15-0.18 ng) in assay buffer (50 mM Tris HCl pH 7.5; 8.3 mM MgCl2; 1,7 mM ethylene glyclol tetraacetic acid (EGTA); 0.25 mg/ml bovine serum albumin (BSA)) and this mixture is incubated at 30° C. for one hour
a) without the compound to be tested (in the presence of 1 μl dimethylsulfoxide (DMSO), corresponding to 1% DMSO) and b) in the presence of the compound to be tested in a concentration of 125 μM, 25 μM, 5 μM, 1 μM, 200 nM, 40 nM, 8 nM, 1.6 nM, 0.32 nM, 0.064 nM, 0.0128 nM (dilution series in 5er-steps beginning from 125 μM until 0.0128 nM, in the presence of 1% DMSO).
After this incubation the reaction is stopped by the addition of 50 μl of bead-solution (500 mg beads/35 ml H2O, 18 mM zinc sulfate). In the following 45 minutes the beads have the opportunity to form a sediment. After that the scintillations are measured in the scintillation counter. If the tested compound is able to inhibit the enzymatic activity of the PDE4B-enzyme, less [^3H]AMP depending on the concentration of the tested compound is produced and less scintillations are measurable. […] The IC50-value stands for the compound concentration at which the PDE4B enzyme activity is inhibited to a half maximal value. Therefore the lower the IC50-value is the better is the PDE4B inhibition.
Background: Scintillation proximity formats need no separation of bound from free tracer.
For `CN1C[C@@H](Nc2nc(N3CCC(c4nc(-c5ccccc5)c(-c5ccccc5)o4)CC3)nc3c2[S+]([O-])CC3)CCC1=O` (stereo partly drawn) [Example 1.38, (S)-5-{2-[4-(4,5-diphenyloxazol-2-yl)-piperidin-1-yl]-5-oxo-6,7-dihydro-5H-5λ^4-thieno[3,2-d]pyrimidin-4-ylamino}-1-methylpiperidin-2-one], the half-inhibitory concentration (IC50) was found to be 0.2 nM.
Take `CN1C[C@@H](Nc2nc(N3CCC(c4ccc(Cl)cc4)CC3)nc3c2S(=O)(=O)CC3)CCC1=O` [Example 1.45, (S)-5-{2-[4-(4-chlorophenyl)-piperidin-1-yl]-5,5-dioxo-6,7-dihydro-5H-5λ^6-thieno[3,2-d]pyrimidin-4-ylamino}-1-methylpiperidin-2-one]: the IC50 was 54 nM.
The figure for `CCc1[nH]c2ccc(F)cc2c1C1CCN(c2nc3c(c(Nc4cccc(F)c4)n2)[S+]([O-])CC3)CC1` (stereo not drawn) [Example 1.13, {2-[4-(2-ethyl-5-fluoro-1H-indol-3-yl)-piperidin-1-yl]-5-oxo-6,7-dihydro-5H-5λ^4-thieno[3,2-d]pyrimidin-4-yl}-(3-fluorophenyl)-amine] is > 10000 nM; for `CC(C)[C@H](CO)Nc1nc(N2CCC(c3ccc(Cl)cc3)CC2)nc2c1[S+]([O-])CC2` (stereo partly drawn) [Example 1.1, (R)-2-{2-[4-(4-chlorophenyl)-piperidin-1-yl]-5-oxo-6,7-dihydro-5H-5λ^4-thieno[3,2-d]pyrimidin-4-ylamino}-3-methylbutan-1-ol] it is 24.2 nM; for `CN1C[C@@H](Nc2nc(N3CCC(Oc4ccc(F)cc4)CC3)nc3c2[S+]([O-])CC3)CCC1=O` (stereo partly drawn) [Example 1.22, (S)-5-{2-[4-(4-fluorophenoxy)-piperidin-1-yl]-5-oxo-6,7-dihydro-5H-5λ4-thieno[3,2-d]pyrimidin-4-ylamino}-1-methylpiperidin-2-one] it is 2.3 nM.
The figure for `[O-][S+]1CCc2nc(N3CCC(c4ccc(Cl)cc4)CC3)nc(NC3(CO)CC3)c21` (stereo not drawn) [Example 1.2, (1-{2-[4-(4-chlorophenyl)-piperidin-1-yl]-5-oxo-6,7-dihydro-5H-5λ^4-thieno[3,2-d]pyrimidin-4-ylamino}-cyclopropyl)-methanol] is 3.4 nM.
The figure for `Cc1nc(C2CCN(c3nc4c(c(NC5(CO)CC5)n3)[S+]([O-])CC4)CC2)oc1-c1ccc(Cl)cc1` (stereo not drawn) [Example 1.40, [1-(2-{4-[5-(4-chlorophenyl)-4-methyloxazol-2-yl]-piperidin-1-yl}-5-oxo-6,7-dihydro-5H-5λ^4-thieno[3,2-d]pyrimidin-4-ylamino)-cyclopropyl]-methanol] is 0.6 nM.
Consider `[O-][S+]1CCc2nc(N3CCC(c4nc5c(o4)CCCC5)CC3)nc(NC3CCOCC3)c21` (stereo not drawn) [Example 1.44], for which the IC50 stood at 2.7 nM.
Consider `[O-][S+]1CCc2nc(N3CCC(c4ccc(Cl)cc4)CC3)nc(NC3(CO)CCC3)c21` (stereo not drawn) [Example 1.47, (1-{2-[4-(4-Chloro-phenyl)-piperidin-1-yl]-5-oxo-6,7-dihydro-5H-5λ^4-thieno[3.2-d]pyrimidin-4-yl-amino}-cyclobutyl)-methanol], for which the IC50 was determined as 4.3 nM.
Take `CN1C(=O)Nc2ccccc2C12CCN(c1nc3c(c(NC4CCOCC4)n1)[S+]([O-])CC3)CC2` (stereo not drawn) [Example 1.11, 3′-methyl-1-(4-(tetrahydro-2H-pyran-4-ylamino)-5-oxo-6,7-dihydro-5H-5λ^4-thieno[3,2-d]pyrimidin-2-yl)-1′H-spiro[piperidin-4,4′-quinazolin]-2′(3′H)-one]: the IC50 was > 10000 nM.
The figure for `CN(C(=O)c1ccc(C2CCN(c3nc4c(c(NC5CCOCC5)n3)[S+]([O-])CC4)CC2)cc1)C1CC1` (stereo not drawn) [Example 1.32, N-cyclopropyl-N-methyl-4-{1-[5-oxo-4-(tetrahydropyran-4-ylamino)-6,7-dihydro-5H-5λ^4-thieno[3,2-d]pyrimidin-2-yl]-piperidin-4-yl}-benzamide] is 8.5 nM; for `CN1C[C@@H](Nc2nc(N3CCC(c4ccc(Cl)cc4)CC3)nc3c2[S+]([O-])CC3)CCC1=O` (stereo partly drawn) [Example 1.5, (S)-5-{2-[4-(4-chlorophenyl)-piperidin-1-yl]-5-oxo-6,7-dihydro-5H-5λ^4-thieno[3,2-d]pyrimidin-4-ylamino}-1-methylpiperidin-2-one] it is 0.6 nM; for `[O-][S+]1CCc2nc(N3CCC(c4cc(-c5ccco5)n[nH]4)CC3)nc(NC3CCOCC3)c21` (stereo not drawn) [Example 1.19, {2-[4-(5-furan-2-yl-2H-pyrazol-3-yl)-piperidin-1-yl]-5-oxo-6,7-dihydro-5H-5λ^4-thieno[3,2-d]pyrimidin-4-yl}-(tetrahydropyran-4-yl)-amine] it is 3.46 nM.
The figure for `Cn1nc(-c2ccco2)cc1C1CCN(c2nc3c(c(NC4CCOCC4)n2)[S+]([O-])CC3)CC1` (stereo not drawn) [Example 1.29, {2-[4-(5-furan-2-yl-2-methyl-2H-pyrazol-3-yl)-piperidin-1-yl]-5-oxo-6,7-dihydro-5H-5λ^4-thieno[3,2-d]pyrimidin-4-yl}-(tetrahydropyran-4-yl)-amine] is 1.7 nM.
In the case of `[O-][S+]1CCc2nc(N3CCC(c4noc5ccc(F)cc45)CC3)nc(NC3(CO)CC3)c21` (stereo not drawn) [Example 1.18, (1-{2-[4-(5-fluorobenzo[d]isoxazol-3-yl)-piperidin-1-yl]-5-oxo-6,7-dihydro-5H-5λ^4-thieno[3,2-d]pyrimidin-4-ylamino}-cyclopropyl)-methanol] it was 1.89 nM.
Take `[O-][S+]1CCc2nc(N3CCC(c4ccc(F)cc4F)CC3)nc(NC3CCOCC3)c21` (stereo not drawn) [Example 1.15, {2-[4-(2,4-difluorophenyl)-piperidin-1-yl]-5-oxo-6,7-dihydro-5H-5λ^4-thieno[3,2-d]pyrimidin-4-yl}-(tetrahydropyran-4-yl)-amine]: the concentration for half-maximal inhibition (IC50) came out at 15.4 nM.
For the compound `N#Cc1ccc(OC2CCN(c3nc4c(c(NC5(CO)CC5)n3)[S+]([O-])CC4)CC2)cc1` (stereo not drawn) [Example 1.43, 4-{1-[4-(1-hydroxymethylcyclopropylamino)-5-oxo-6,7-dihydro-5H-5λ^4-thieno[3,2-d]pyrimidin-2-yl]-piperidin-4-yloxy}-benzonitrile], the concentration for half-maximal inhibition (IC50) came to 3.5 nM.
In the case of `[O-][S+]1CCc2nc(N3CCC(CO)(c4ccc(Cl)cc4)CC3)nc(NC3CCOCC3)c21` (stereo not drawn) [Example 1.39, {4-(4-chlorophenyl)-1-[5-oxo-4-(tetrahydropyran-4-ylamino)-6,7-dihydro-5H-5λ^4-thieno[3,2-d]pyrimidin-2-yl]-piperidin-4-yl}-methanol] it was 1.8 nM; in that of `[O-][S+]1CCc2nc(N3CCC(Oc4ccc(C5=NCCO5)cc4)CC3)nc(NC3CCOCC3)c21` (stereo not drawn) [Example 1.23, (2-{4-[4-(4,5-dihydrooxazol-2-yl)-phenoxy]-piperidin-1-yl}-5-oxo-6,7-dihydro-5H-5λ^4-thieno[3,2-d]pyrimidin-4-yl)-(tetrahydropyran-4-yl)-amine], 1.7 nM.
The figure for `[O-][S+]1CCc2nc(N3CCC(O)(c4ccc(Cl)cc4)CC3)nc(NC3CCOCC3)c21` (stereo not drawn) [Example 1.41, 4-(4-chlorophenyl)-1-[5-oxo-4-(tetrahydropyran-4-ylamino)-6,7-dihydro-5H-5λ^4-thieno[3,2-d]pyrimidin-2-yl]-piperidin-4-ol] is 6.7 nM; for `Cc1oc(C2CCN(c3nc4c(c(NC5(CO)CC5)n3)[S+]([O-])CC4)CC2)nc1-c1ccccc1` (stereo not drawn) [Example 1.37, (1-{2-[4-(5-methyl-4-phenyloxazol-2-yl)-piperidin-1-yl]-5-oxo-6,7-dihydro-5H-5λ^4-thieno[3,2-d]pyrimidin-4-ylamino}-cyclopropyl)-methanol] it is 3.5 nM.
